{"source": "patent US20040214320A1", "about": "“Mammalian gamete and embryo culture media supplement and method of using same” (Vitrolife, Inc,, priority 2000, published 2004)", "type_in_all_cases": "cell-based", "key": {"outbred mouse embryo": {"system": "outbred mouse embryo", "experiment": "Outbred mouse embryo development in culture, fertilized eggs cultured 4 days (G1.2 48 h, then G2.2 48 h)", "description": "Embryos were cultured at 37° C. in 6% CO2:5% O2:89% N2 in an embryo incubation volume of 10 embryos: 20 μl of medium. Embryos were cultured in medium G 1.2 for 48 h followed by 48 h of culture in medium G 2.2.\nInitial experiments investigated replacing albumin purified from blood with HYN for outbred mouse embryo development in culture. Fertilized eggs were cultured for 4 days in one of 4 different concentrations of HYN. Embryos were cultured at 37° C. in 6% CO2:5% O2:89% N2 in an embryo incubation volume of 10 embryos: 20 μl of medium. Embryos were cultured in medium G1.2 for 48 h followed by 48 h of culture in medium G2.2. The negative control treatment was no protein.\nFertilized eggs were cultured for 4 days. Embryos were cultured at 37° C. in 6% CO2:5% O2:89% N2 in an embryo incubation volume of 10 embryos: 20 μl of medium. Embryos were cultured in medium G 1.2 for 48 h followed by 48 h of culture in medium G 2.2.\nEmbryos were cultured at 37° C. in 6% CO2:5% O2:89% N2 in an embryo incubation volume of 10 embryos: 20 μl of medium. Embryos were cultured in medium G1.2 for 48 h followed by 48 h of culture in medium G2.2."}, "mouse embryo": {"system": "mouse embryo", "experiment": "Mouse embryo development in culture, 48 h in G1.2, with or without citrate", "description": "Embryos were cultured at 37° C. in 6% CO2:5% O2:89% N2 in an embryo incubation volume of 10 embryos: 20 μl of medium. Embryos were cultured in medium G1.2 for 48 h."}, "cow embryos": {"system": "cow embryos", "experiment": "Cow embryo development in culture, fertilized eggs cultured 6 to 7 days (G1.2 72 h, then G2.2 72 h)", "settings": "Example 7, cow", "description": "(§1) Fertilized eggs were cultured for 6 to 7 days. Embryos were cultured at 38.5° C. in 6% CO2:5% O2:89% N2 in 500 μl of medium. Embryos were cultured in medium G1.2 for 72 h followed by 72 h of culture in medium G2.2.\nas §1\nFertilized eggs were cultured for 6 to 7 days. Embryos were cultured at 38.5° C. in 6% CO2:5% O2:89% N2 in 500 μl of medium. Embryos were cultured in medium G1.2 for 72 h, followed by 72 h of culture in medium G2.2. Blastocysts were either stained for cell numbers or frozen and subsequently thawed to assess survival."}, "CF1 mouse blastocysts": {"system": "CF1 mouse blastocysts", "experiment": "Blastocyst attachment and outgrowth in culture following cryopreservation", "description": "The ability of the blastocysts to outgrow in culture following cryopreservation was also assessed. The outgrowth of both the ICM and TE was scored between 0-3 where 0 represented no outgrowth and 3 represented extensive outgrowth."}, "[1]": {"settings": "treatment +/+ (citrate in first 48 h / further 48 h), medium with rHA and HYN"}, "[2]": {"settings": "treatment +/− (citrate in first 48 h / further 48 h), medium with rHA and HYN"}, "[3]": {"settings": "treatment −/+ (citrate in first 48 h / further 48 h), medium with rHA and HYN"}, "[4]": {"settings": "citrate added to medium G1.2 with rHA and HYN"}, "[5]": {"settings": "HYN 0.125 mg/ml, no protein, 4 days culture"}, "[6]": {"settings": "HYN 0.5 mg/ml, no protein, 4 days culture"}, "[7]": {"settings": "HYN 1 mg/ml, no protein, 4 days culture"}}, "note": "Marks after values point to notes of the source that are not given here."}
{"compound": "O=C(O)CC(O)(CC(=O)O)C(=O)O", "note": "[citrate]", "values": [{"measurement": "embryo development", "setting": "outbred mouse embryo; Example 6, citrate added to medium with rHA and HYN, 96 h", "result": "significantly increased"}, {"measurement": "% ICM/Total", "setting": "outbred mouse embryo; [1]", "result": 30.4, "unit": "%"}, {"measurement": "Cell Number", "setting": "outbred mouse embryo; [1]", "result": 100.7}, {"measurement": "Hatching (% of Total)", "setting": "outbred mouse embryo; [1]", "result": 18.2, "unit": "%"}, {"measurement": "Morula/Blastocyst (%)", "setting": "outbred mouse embryo; [1]", "result": 72.7, "unit": "%"}, {"measurement": "TE Number", "setting": "outbred mouse embryo; [1]", "result": 69.8}, {"measurement": "Total Blastocyst (%)", "setting": "outbred mouse embryo; [1]", "result": 62.7, "unit": "%"}, {"measurement": "% ICM/Total", "setting": "outbred mouse embryo; [2]", "result": 30.7, "unit": "%"}, {"measurement": "Cell Number", "setting": "outbred mouse embryo; [2]", "result": 112.6}, {"measurement": "Hatching (% of Total)", "setting": "outbred mouse embryo; [2]", "result": 16.8, "unit": "%"}, {"measurement": "ICM Number", "setting": "outbred mouse embryo; [2]", "result": 34.9}, {"measurement": "Morula/Blastocyst (%)", "setting": "outbred mouse embryo; [2]", "result": 71.3, "unit": "%"}, {"measurement": "TE Number", "setting": "outbred mouse embryo; [2]", "result": 77.7}, {"measurement": "Total Blastocyst (%)", "setting": "outbred mouse embryo; [2]", "result": 67.3, "unit": "%"}, {"measurement": "% ICM/Total", "setting": "outbred mouse embryo; [3]", "result": 34.5, "unit": "%"}, {"measurement": "Cell Number", "setting": "outbred mouse embryo; [3]", "result": 94.8}, {"measurement": "Hatching (% of Total)", "setting": "outbred mouse embryo; [3]", "result": 23.2, "unit": "%"}, {"measurement": "ICM Number", "setting": "outbred mouse embryo; [3]", "result": 33.4}, {"measurement": "Morula/Blastocyst (%)", "setting": "outbred mouse embryo; [3]", "result": 68.5, "unit": "%"}, {"measurement": "TE Number", "setting": "outbred mouse embryo; [3]", "result": 61.44}, {"measurement": "Total Blastocyst (%)", "setting": "outbred mouse embryo; [3]", "result": 64.8, "unit": "%"}, {"measurement": "% 8 cell", "setting": "mouse embryo; [4]", "result": "81.1* %"}, {"measurement": "% compacted", "setting": "mouse embryo; [4]", "result": "12.2* %"}, {"measurement": "Day 3 mean cell number", "setting": "mouse embryo; [4]", "result": "7.21 ± 0.13"}, {"measurement": "embryo development", "setting": "mouse embryo; citrate added to medium containing rHA and fermented HYN", "result": "significant increase"}]}
{"compound": "hyaluronan [HYN]", "values": [{"measurement": "% ICM/Total", "setting": "outbred mouse embryo; [5]", "result": "26.5 ± 0.6^ac %"}, {"measurement": "Blastocyst", "setting": "outbred mouse embryo; [5]", "result": "88.6^a"}, {"measurement": "Cell Number", "setting": "outbred mouse embryo; [5]", "result": "79.6 ± 1.9^bc"}, {"measurement": "Hatching", "setting": "outbred mouse embryo; [5]", "result": 57.1, "unit": "b^c"}, {"measurement": "ICM Number", "setting": "outbred mouse embryo; [5]", "result": "21.2 ± 0.8^bc"}, {"measurement": "TE Number", "setting": "outbred mouse embryo; [5]", "result": "58.7 ± 1.5^bc"}, {"measurement": "% ICM/Total", "setting": "outbred mouse embryo; [6]", "result": "28.3 ± 1.1^bc %"}, {"measurement": "Blastocyst", "setting": "outbred mouse embryo; [6]", "result": "100^a"}, {"measurement": "Cell Number", "setting": "outbred mouse embryo; [6]", "result": "64.2 ± 1.9^ac"}, {"measurement": "Hatching", "setting": "outbred mouse embryo; [6]", "result": "50^b"}, {"measurement": "ICM Number", "setting": "outbred mouse embryo; [6]", "result": "18.0 ± 0.7^ac"}, {"measurement": "TE Number", "setting": "outbred mouse embryo; [6]", "result": "46.7 ± 2.0^a"}, {"measurement": "% ICM/Total", "setting": "outbred mouse embryo; [7]", "result": "26.4 ± 0.9^ac %"}, {"measurement": "Blastocyst", "setting": "outbred mouse embryo; [7]", "result": "61.8^b"}, {"measurement": "Cell Number", "setting": "outbred mouse embryo; [7]", "result": "62.0 ± 2.7^ac"}, {"measurement": "Hatching", "setting": "outbred mouse embryo; [7]", "result": "23.5^a"}, {"measurement": "ICM Number", "setting": "outbred mouse embryo; [7]", "result": "17.5 ± 0.8^ac"}, {"measurement": "TE Number", "setting": "outbred mouse embryo; [7]", "result": "49.1 ± 2.5^a"}, {"measurement": "mouse embryo development", "setting": "outbred mouse embryo; concentrations from 0.125 to 0.5 mg/ml", "result": "stimulated"}, {"measurement": "Total Blastocyst Day 6", "setting": "cow embryos; day 6", "result": "16.9^b"}, {"measurement": "Total Blastocyst Day 7", "setting": "cow embryos; day 7", "result": 30.4}, {"measurement": "development of the ICM (outgrowth) compared to human serum albumin", "setting": "CF1 mouse blastocysts", "result": "increased"}]}
